Experimental data as given in patent publication US20060046972A1, “Cytotoxic nucleoside analog compound 003 for treating cancer” (Parker Hughes Institute, priority 2004, published 2006).

Legend:
[1] = Stability in simulated intestinal fluid; assay type: in vitro ADME
Procedure: Plasma samples, simulated gastric fluid and intestinal fluids (United State Pharmacopeia XXII methods) were separately spiked with COMPOUND 003 to yield final concentrations of 500 μM. Spiked samples were incubated at 37° C. At a predetermined time (5, 10, 15, 30 60 and 120 minutes), an aliquot (200 μl) of the spiked plasma sample was extracted as described above.

Lewis rats = assay: Cumulative toxicity of intraperitoneal doses in Lewis rats; assay type: in vivo; design: RBC: unit not given here; details: for ALC / ALT / ANC / AST / Albumin / Ammonia / Amylase / BUN / CPK / Calcium / Creatinine / Mean Weight Change (g ± SEM) / Mean Weight Change [%] / Morbidity / Phosphate / RBC / Total Bilirubin / Total Protein / Toxic Organ Lesions / Triglycerides / WBC / Weight Gain / Weight Loss: day 30
Procedure: 1.2.8 Animals Female CD-1 mice (Body weight: ˜25 g; Age: 7 week old) were purchased, from Charles River Laboratories (Willmington, Mass., USA). MMTV Neu-mice [FVB/N-TgN(MMTV neu)202MUL; Jackson Laboratory, Bar Harbor, Me.] were bred to produce multiple litters. All mice were housed in microisolator cages (Lab Products, Inc., Maywood, N.Y., USA) containing autoclaved bedding in a controlled specific pathogen-free (SPF) environment (12-h light/12-h dark photoperiod, 22±1° C., 60±10% relative humidity), which is fully accredited by the USDA (United States Department of Agriculture). Adult male Lewis rats (Body weight: ˜160 g) were obtained from the specific pathogen-free (SPF) breeding facilities of Harlan Sprague Dawley (Indianapolis, Id., USA) at 14 weeks of age. All husbandry and experimental contact made with the mice and rats maintained SPF conditions. The rats were kept in microisolater cages (Allentown Caging Equipment Co., Inc., Allentown, N.J., USA) containing autoclaved food, water, and bedding. Animal studies were approved by Parker Hughes Institute Animal Care and Use Committee and all animal care procedures 1.5 conformed to the Guide for the Care and Use of Laboratory Animals (National Research Council, National Academy Press, Washington D.C. 1996, USA).
The toxicity profile of Compound 003 in CD-1 mice and Lewis rats was examined, using standard procedures as previously reported for other experimental drugs (Uckun, et al., 2003, Arzneimittelforschun. 53:357; Uckun, et al., 2002, Clin Cancer Res. 8: 1224; Uckun, et al., 2002, Antimicrob Agents Chemother. 46:3428). In brief, mice and rats were treated with intraperitoneal injections of vehicle or Compound 003 at multiple dose levels. Compound 003 was administered as a 0.2 mL (for mice) or 0.5 mL (for rats) bolus injection containing 10% DMSO as a vehicle. Animals were allowed free access to autoclaved standard pellet food and tap water throughout the experiments and monitored daily for morbidity and mortality. Animals were electively sacrificed on day 7 or day 30 to determine the toxicity of Compound 003 by examining their blood chemistry profiles, blood counts, and evaluating multiple organs for the presence of toxic lesions. Blood was collected by intracardiac puncture following anesthesia with ketamine:xylazine and immediately heparinized. The blood chemistry profiles were examined using a Synchron CX5CE Chemical Analyzer (Beckman Instruments, Inc., Fullerton, Calif., USA). Blood counts (red blood cells [RBC], white blood cells [WBC] and platelets [Plt]) were determined using a HESKA Vet ABC-Diff Hematology Analyzer (HESKA Corporation, Fort Collins, Colo., USA). Absolute neutrophil counts (ANC) and absolute lymphocyte counts (ALC) were calculated from WBC values after determining the percentages of neutrophils and lymphocytes by a manual differential count. At the time of necropsy, […] from mice (bone, bone marrow, brain, cecum, heart, kidney, large intestine, liver, lung, lymph node, ovary, pancreas, skeletal muscle, skin, small intestine, spleen, stomach, thymus, thyroid gland, urinary bladder, and uterus, as available) and 21 different tissues from rats (bone, bone marrow, brain, coagulating gland, epididymis, heart, large intestine, small intestine, kidney, liver, lung, pancreas, peripheral nerve/spinal nerve, skeletal muscle, skin, spinal cord, spleen, stomach, testes, thymus, urinary bladder) were collected within 15 minutes after sacrifice, gross pathological findings were documented, organs were preserved in 10% neutral phosphate buffered formalin, and processed for histopathological examination. For histopathologic studies, formalin fixed tissues were dehydrated and embedded in paraffin by routine methods. Glass slides with affixed 4-5 micron tissue sections were prepared and stained with Hemotoxylin and Eosin (H&E). […]

[2] = 20 mg/kg i.p. for 30 consecutive days
[3] = 40 mg/kg i.p. for 30 consecutive days
[4] = 80 mg/kg i.p. for 30 consecutive days

## COC(=O)C(C)NP(=O)(OCC1OC(n2cc(C)c(=O)[nH]c2=O)CC1N=[N+]=[N-])Oc1ccc(OC)cc1 (stereo not drawn) [Compound 003, 3′-azidothymidine 5′-[p-methoxyphenylmethoxyalaninyl phosphate]]
[1]; intestinal fluid
  decomposition product: decomposed to form ala-AZT-MP
[1]; simulated intestinal fluid, 500 μM, 37° C.
  stability: unstable
Lewis rats; [2]
  ALC: 9.6 ± 0.0 ×10^9L
  ALT: 68.0 ± 5.5 IU/L
  ANC: 2.4 ± 0.0 ×10^9L
  AST: 7.6 ± 1.6 IU/L
  Albumin: 1.5 ± 0.0 g/dL
  Ammonia: 77.2 ± 4.1 µmol/L
  Amylase: 1667.1 ± 29.8 U/L
  BUN: 21.8 ± 0.4 mg/dL
  CPK: 546.1 ± 109.9 IU/L
  Calcium: 10.9 ± 0.1 mg/dL
  Creatinine: 0.6 ± 0.0 mg/dL
  Mean Weight Change (g ± SEM): 9.02 ± 1.39 g
  Mean Weight Change [%]: (2.68 ± 0.41%)
  Morbidity: 0/10
  Phosphate: 6.2 ± 0.2 mg/dL
  RBC: 10.0 ± 0.1 ×10^9
  Total Bilirubin: 0.6 ± 0.1 mg/dL
  Total Protein: 6.3 ± 0.1 g/dL
  Toxic Organ Lesions: 0/10
  Triglycerides: 87.4 ± 9.9 mg/dL
  WBC: 11.9 ± 0.4 ×10^9/L
  Weight Gain: 10/10
  Weight Loss: 0/10
Lewis rats; [3]
  ALC: 10.7 ± 0.0 ×10^9L
  ALT: 64.2 ± 1.4 IU/L
  ANC: 1.9 ± 0.0 ×10^9L
  AST: 6.8 ± 1.0 IU/L
  Albumin: 1.6 ± 0.0 g/dL
  Ammonia: 91.4 ± 8.2 µmol/L
  Amylase: 1586.3 ± 31.4 U/L
  BUN: 21.8 ± 0.3 mg/dL
  CPK: 409.4 ± 55.3 IU/L
  Calcium: 10.4 ± 0.1 mg/dL
  Creatinine: 0.5 ± 0.0 mg/dL
  Mean Weight Change (g ± SEM): 9.66 ± 1.36 g
  Mean Weight Change [%]: (2.85 ± 0.38%)
  Morbidity: 0/10
  Phosphate: 5.6 ± 0.1 mg/dL
  RBC: 10.1 ± 0.1 ×10^9
  Total Bilirubin: 0.6 ± 0.1 mg/dL
  Total Protein: 6.1 ± 0.1 g/dL
  Toxic Organ Lesions: 0/10
  Triglycerides: 103.0 ± 10.7 mg/dL
  WBC: 12.9 ± 0.4 ×10^9/L
  Weight Gain: 10/10
  Weight Loss: 0/10
Lewis rats; [4]
  ALC: 10.0 ± 0.0 ×10^9L
  ALT: 62.5 ± 1.8 IU/L
  ANC: 2.1 ± 0.0 ×10^9L
  AST: 9.4 ± 0.7 IU/L
  Albumin: 1.6 ± 0.0 g/dL
  Ammonia: 92.8 ± 6.0 µmol/L
  Amylase: 1658.3 ± 51.8 U/L
  BUN: 22.7 ± 0.7 mg/dL
  CPK: 371.0 ± 44.3 IU/L
  Calcium: 10.5 ± 0.2 mg/dL
  Creatinine: 0.6 ± 0.0 mg/dL
  Mean Weight Change (g ± SEM): 7.37 ± 1.70 g
  Mean Weight Change [%]: (2.24 ± 0.51%)
  Morbidity: 0/10
  Phosphate: 5.9 ± 0.1 mg/dL
  RBC: 9.8 ± 0.1 ×10^9
  Total Bilirubin: 0.7 ± 0.1 mg/dL
  Total Protein: 6.3 ± 0.1 g/dL
  Toxic Organ Lesions: 0/10
  Triglycerides: 83.4 ± 11.2 mg/dL
  WBC: 12.2 ± 0.3 ×10^9/L
  Weight Gain: 9/10
  Weight Loss: 1/10
Lewis rats; 20-80 mg/kg/day for 30 days
  postmortem gross pathology: did not reveal any gross pathological findings
Lewis rats; 80 and 40 mg/kg
  Slight tubular degeneration, share of animals: 50%
Lewis rats; day 30, 20-80 mg/kg/day
  systemic toxicity by blood tests: did not suggest any significant systemic toxicity
Lewis rats; i.p. daily for up to 30 days, daily dose as high as 80 mg/kg, cumulative as high as 2.4 g/kg
  tolerability: well tolerated
